# Measured values taken from PMC3439875 (Nucleic Acids Research, 2012).
# Molecular target: variola topoisomerase (Variola virus, UniProt P32989)
# Type: biochemical
# Sequence of variola topoisomerase (P32989 whole entry, looked up): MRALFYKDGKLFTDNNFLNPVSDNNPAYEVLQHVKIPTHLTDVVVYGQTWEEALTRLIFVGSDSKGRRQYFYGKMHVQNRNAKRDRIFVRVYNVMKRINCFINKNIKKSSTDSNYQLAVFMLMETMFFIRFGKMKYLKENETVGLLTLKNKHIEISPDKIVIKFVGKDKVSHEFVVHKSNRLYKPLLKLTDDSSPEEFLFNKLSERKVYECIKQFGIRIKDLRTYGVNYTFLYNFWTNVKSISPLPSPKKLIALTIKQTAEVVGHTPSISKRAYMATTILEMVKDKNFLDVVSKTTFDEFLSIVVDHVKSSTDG
smiles,measurement,value
CCOC(=O)c1c(O)c2cc(-c3cccc(OC)n3)cnc2n(O)c1=O [Compound 7],Inhibition of variola topoisomerase activity,no inhibitory activity
